Reference: the kinase profiling compilation of Christmann-Franck et al. (2016)
Blank lines part the entries; values can stand above or below the compound they belong to.

Experiments:
Assay in all cases: KINOMEscan competition binding
Settings in all cases: compound 10.0 µM
[1] = target: CAMK1G (human) (UniProt Q96NX5)
[2] = target: CAMK4 (human) (UniProt Q16566)
[3] = target: CDC2L2 (human) (UniProt Q9UQ88)
[4] = target: CDC42BPB (human) (UniProt Q9Y5S2)
[5] = target: CDK14 (human) (UniProt O94921)
Chain of CDK14 (human) (O94921 whole entry, looked up): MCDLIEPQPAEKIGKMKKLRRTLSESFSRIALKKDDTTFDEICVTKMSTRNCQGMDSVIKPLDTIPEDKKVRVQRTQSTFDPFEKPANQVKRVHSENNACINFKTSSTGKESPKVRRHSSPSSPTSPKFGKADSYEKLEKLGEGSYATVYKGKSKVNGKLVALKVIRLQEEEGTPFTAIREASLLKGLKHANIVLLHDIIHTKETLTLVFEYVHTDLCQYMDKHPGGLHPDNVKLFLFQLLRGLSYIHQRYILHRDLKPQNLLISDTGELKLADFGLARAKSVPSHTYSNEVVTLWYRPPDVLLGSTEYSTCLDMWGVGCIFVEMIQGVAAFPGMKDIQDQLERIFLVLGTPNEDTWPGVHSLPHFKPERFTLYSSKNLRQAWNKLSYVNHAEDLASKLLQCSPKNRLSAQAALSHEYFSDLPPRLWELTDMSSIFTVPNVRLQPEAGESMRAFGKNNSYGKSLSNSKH

[6] = target: CDK9 (human) (UniProt P50750)
[7] = target: CSNK1A1L (human) (UniProt Q8N752)
[8] = test system: EGFR (human), P00533 [A750P; 747-749 del]
[9] = target: EIF2AK2 (human) (UniProt P19525)
[10] = target: EPHB1 (human) (UniProt P54762)
[11] = test system: FGFR3 (human), P22607 [G697C]
[12] = target: IGF1R (human) (UniProt P08069)
[13] = target: IKBKB (human) (UniProt O14920)
Chain of IKBKB (human) (O14920 whole entry, looked up): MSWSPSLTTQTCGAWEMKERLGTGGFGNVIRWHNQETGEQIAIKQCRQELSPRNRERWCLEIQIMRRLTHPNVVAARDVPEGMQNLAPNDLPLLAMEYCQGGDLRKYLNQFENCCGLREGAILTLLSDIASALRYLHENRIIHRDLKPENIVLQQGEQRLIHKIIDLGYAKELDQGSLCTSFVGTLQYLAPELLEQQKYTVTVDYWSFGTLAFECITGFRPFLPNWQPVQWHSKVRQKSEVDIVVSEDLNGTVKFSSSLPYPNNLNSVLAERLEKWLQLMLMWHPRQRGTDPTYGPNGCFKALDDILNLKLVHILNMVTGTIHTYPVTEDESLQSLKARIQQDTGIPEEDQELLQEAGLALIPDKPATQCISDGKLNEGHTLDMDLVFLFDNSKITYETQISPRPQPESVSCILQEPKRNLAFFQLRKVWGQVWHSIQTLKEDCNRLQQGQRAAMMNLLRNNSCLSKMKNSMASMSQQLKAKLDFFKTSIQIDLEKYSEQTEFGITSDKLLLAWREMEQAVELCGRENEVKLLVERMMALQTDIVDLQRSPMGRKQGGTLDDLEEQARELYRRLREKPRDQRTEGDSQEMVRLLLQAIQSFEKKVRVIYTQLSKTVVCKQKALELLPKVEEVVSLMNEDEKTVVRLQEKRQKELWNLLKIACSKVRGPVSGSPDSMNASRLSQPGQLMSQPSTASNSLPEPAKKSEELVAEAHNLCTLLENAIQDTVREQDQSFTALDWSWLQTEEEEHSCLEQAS

[14] = target: INSRR (human) (UniProt P14616)
[15] = target: LIMK2 (human) (UniProt P53671)
[16] = target: MAP2K2 (human) (UniProt P36507)
[17] = target: MAP4K5 (human) (UniProt Q9Y4K4)
[18] = target: MAPK12 (human) (UniProt P53778)
[19] = target: MAPK6 (human) (UniProt Q16659)
[20] = target: MAPK9 (human) (UniProt P45984)
[21] = target: MARK2 (human) (UniProt Q7KZI7)
[22] = target: MARK3 (human) (UniProt P27448)
Chain of MARK3 (human) (P27448 whole entry, looked up): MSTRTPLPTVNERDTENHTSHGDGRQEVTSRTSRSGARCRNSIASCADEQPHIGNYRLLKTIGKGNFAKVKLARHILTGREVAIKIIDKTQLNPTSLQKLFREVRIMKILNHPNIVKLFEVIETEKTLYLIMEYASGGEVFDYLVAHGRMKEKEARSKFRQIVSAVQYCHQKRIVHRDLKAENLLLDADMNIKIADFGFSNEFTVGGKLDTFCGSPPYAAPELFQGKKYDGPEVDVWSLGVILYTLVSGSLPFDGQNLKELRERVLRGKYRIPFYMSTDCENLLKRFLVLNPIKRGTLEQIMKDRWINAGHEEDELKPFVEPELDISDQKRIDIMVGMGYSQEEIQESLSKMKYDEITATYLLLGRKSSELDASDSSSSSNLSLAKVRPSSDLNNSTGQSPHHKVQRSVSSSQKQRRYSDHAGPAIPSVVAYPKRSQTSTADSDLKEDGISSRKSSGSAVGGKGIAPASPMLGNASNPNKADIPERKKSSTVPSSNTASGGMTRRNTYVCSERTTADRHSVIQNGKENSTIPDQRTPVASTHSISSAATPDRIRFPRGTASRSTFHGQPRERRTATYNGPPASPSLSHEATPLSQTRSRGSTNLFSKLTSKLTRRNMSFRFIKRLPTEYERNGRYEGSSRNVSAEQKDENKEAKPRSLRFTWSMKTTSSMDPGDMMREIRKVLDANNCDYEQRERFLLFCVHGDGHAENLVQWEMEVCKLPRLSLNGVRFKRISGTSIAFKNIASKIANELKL

[23] = target: MERTK (human) (UniProt Q12866)
Chain of MERTK (human) (Q12866 whole entry, looked up): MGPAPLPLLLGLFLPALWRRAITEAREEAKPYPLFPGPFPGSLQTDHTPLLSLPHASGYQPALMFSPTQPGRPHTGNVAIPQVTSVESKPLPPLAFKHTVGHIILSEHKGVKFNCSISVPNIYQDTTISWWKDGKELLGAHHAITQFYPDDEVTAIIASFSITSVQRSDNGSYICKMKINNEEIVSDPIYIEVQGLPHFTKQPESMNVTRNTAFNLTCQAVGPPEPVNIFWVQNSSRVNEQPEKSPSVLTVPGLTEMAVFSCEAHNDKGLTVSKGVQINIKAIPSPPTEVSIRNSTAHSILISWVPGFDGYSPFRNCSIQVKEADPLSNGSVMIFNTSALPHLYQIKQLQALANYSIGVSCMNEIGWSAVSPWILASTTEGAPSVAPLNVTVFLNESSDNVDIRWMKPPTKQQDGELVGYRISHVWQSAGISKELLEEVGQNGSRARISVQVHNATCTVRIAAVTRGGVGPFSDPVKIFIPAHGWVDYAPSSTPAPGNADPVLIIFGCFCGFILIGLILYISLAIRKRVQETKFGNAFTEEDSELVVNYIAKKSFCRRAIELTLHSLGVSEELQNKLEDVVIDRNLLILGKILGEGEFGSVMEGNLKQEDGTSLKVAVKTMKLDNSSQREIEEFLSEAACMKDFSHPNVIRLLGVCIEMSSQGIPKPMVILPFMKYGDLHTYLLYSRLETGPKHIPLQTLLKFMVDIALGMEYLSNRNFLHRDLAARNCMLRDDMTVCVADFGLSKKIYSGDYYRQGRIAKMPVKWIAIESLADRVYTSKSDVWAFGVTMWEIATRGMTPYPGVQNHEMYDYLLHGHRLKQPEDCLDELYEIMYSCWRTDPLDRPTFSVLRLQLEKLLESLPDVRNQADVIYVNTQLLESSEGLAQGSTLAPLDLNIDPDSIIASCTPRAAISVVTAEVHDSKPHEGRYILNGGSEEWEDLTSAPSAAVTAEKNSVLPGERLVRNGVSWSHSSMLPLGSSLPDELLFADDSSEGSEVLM

[24] = target: MUSK (human) (UniProt O15146)
[25] = target: NEK5 (human) (UniProt Q6P3R8)
[26] = target: NEK9 (human) (UniProt Q8TD19)
[27] = target: NUAK1 (human) (UniProt O60285)
[28] = target: NUAK2 (human) (UniProt Q9H093)
[29] = target: PIK3C2B (human) (UniProt O00750)
Chain of PIK3C2B (human) (O00750 whole entry, looked up): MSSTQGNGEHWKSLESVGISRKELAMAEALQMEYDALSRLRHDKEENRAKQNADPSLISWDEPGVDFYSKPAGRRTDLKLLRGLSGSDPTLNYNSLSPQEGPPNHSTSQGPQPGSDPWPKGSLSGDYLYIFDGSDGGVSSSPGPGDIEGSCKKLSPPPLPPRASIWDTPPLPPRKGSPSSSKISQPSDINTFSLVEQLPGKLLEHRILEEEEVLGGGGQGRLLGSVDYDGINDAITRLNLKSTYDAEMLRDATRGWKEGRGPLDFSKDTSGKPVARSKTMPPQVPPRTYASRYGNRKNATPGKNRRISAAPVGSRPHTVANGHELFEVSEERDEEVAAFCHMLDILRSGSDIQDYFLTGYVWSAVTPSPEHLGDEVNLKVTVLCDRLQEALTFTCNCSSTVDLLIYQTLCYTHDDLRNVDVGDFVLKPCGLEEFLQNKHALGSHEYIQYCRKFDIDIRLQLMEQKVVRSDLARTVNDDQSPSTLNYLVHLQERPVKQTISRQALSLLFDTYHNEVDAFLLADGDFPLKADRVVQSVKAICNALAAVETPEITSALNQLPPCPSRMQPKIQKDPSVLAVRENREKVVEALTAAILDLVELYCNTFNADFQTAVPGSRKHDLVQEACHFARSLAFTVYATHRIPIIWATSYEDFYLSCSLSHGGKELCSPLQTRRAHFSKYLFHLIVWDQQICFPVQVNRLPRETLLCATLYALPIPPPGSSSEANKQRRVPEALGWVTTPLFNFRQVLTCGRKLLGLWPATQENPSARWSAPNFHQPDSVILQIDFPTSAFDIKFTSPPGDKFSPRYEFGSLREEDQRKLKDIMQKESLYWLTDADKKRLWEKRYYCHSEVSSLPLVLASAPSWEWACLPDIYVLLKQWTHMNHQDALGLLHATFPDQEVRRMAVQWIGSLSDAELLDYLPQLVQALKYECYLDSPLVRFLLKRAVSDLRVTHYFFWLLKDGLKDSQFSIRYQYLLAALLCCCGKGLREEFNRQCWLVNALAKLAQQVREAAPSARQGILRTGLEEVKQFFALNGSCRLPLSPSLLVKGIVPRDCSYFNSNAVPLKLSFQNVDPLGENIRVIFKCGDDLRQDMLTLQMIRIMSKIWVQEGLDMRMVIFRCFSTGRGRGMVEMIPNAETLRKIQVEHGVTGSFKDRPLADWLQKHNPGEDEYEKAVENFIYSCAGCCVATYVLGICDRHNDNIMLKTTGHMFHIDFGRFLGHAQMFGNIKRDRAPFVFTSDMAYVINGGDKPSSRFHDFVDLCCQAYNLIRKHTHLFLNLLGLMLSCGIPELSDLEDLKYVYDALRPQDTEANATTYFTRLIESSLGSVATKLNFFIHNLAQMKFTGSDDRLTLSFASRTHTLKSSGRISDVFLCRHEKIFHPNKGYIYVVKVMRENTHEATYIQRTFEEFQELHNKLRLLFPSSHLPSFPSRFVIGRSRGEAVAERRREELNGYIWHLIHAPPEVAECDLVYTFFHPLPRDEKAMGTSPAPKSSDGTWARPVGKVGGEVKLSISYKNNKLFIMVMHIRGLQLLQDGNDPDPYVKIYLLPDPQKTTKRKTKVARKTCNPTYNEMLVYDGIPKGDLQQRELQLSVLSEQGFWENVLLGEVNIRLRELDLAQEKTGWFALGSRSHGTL

[30] = target: PRKCH (human) (UniProt P24723)
[31] = target: PTK2 (human) (UniProt Q05397)
[32] = target: RAF1 (human) (UniProt P04049)
[33] = target: RPS6KA1 KD1 (human) (UniProt Q15418)
[34] = target: RPS6KA4 KD1 (human) (UniProt O75676)
[35] = target: SIK2 (human) (UniProt Q9H0K1)
[36] = target: STK32B (human) (UniProt Q9NY57)
[37] = target: STK32C (human) (UniProt Q86UX6)
Chain of STK32C (human) (Q86UX6 whole entry, looked up): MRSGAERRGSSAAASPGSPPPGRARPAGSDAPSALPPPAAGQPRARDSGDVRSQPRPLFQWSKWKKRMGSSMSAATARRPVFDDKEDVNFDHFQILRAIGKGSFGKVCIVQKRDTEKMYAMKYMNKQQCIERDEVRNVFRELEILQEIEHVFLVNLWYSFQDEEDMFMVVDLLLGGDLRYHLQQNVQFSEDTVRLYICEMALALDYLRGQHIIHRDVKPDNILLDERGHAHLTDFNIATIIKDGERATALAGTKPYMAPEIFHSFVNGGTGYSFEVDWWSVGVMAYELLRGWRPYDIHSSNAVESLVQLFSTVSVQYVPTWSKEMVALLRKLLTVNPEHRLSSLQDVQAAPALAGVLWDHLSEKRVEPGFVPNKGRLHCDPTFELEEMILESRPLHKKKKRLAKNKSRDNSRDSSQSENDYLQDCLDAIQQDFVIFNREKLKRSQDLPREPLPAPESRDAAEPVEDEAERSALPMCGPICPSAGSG

[38] = target: TEC (human) (UniProt P42680)
[39] = target: TEK (human) (UniProt Q02763)
[40] = target: TGFBR1 (human) (UniProt P36897)
[41] = target: TLK2 (human) (UniProt Q86UE8)
[42] = target: TSSK1B (human) (UniProt Q9BXA7)

kinase still bound, per cent of control [1]: 100%
kinase still bound, per cent of control [2]: 100%
kinase still bound, per cent of control [3]: 100%
kinase still bound, per cent of control [4]: 100%
kinase still bound, per cent of control [5]: 100%
kinase still bound, per cent of control [6]: 100%
kinase still bound, per cent of control [7]: 100%
kinase still bound, per cent of control [8]: 49%
kinase still bound, per cent of control [9]: 93%
kinase still bound, per cent of control [10]: 100%
kinase still bound, per cent of control [11]: 100%
kinase still bound, per cent of control [12]: 100%
kinase still bound, per cent of control [13]: 75%
kinase still bound, per cent of control [14]: 55%
kinase still bound, per cent of control [15]: 86%
kinase still bound, per cent of control [16]: 100%
kinase still bound, per cent of control [17]: 91%
kinase still bound, per cent of control [18]: 78%
kinase still bound, per cent of control [19]: 100%
kinase still bound, per cent of control [20]: 87%
kinase still bound, per cent of control [21]: 100%
kinase still bound, per cent of control [22]: 98%
kinase still bound, per cent of control [23]: 100%
kinase still bound, per cent of control [24]: 100%
kinase still bound, per cent of control [25]: 100%
kinase still bound, per cent of control [27]: 100%
kinase still bound, per cent of control [28]: 100%
kinase still bound, per cent of control [29]: 100%
kinase still bound, per cent of control [30]: 76%
kinase still bound, per cent of control [31]: 85%
kinase still bound, per cent of control [32]: 94%
kinase still bound, per cent of control [33]: 97%
kinase still bound, per cent of control [34]: 100%
kinase still bound, per cent of control [35]: 89%
kinase still bound, per cent of control [36]: 100%
kinase still bound, per cent of control [37]: 100%
kinase still bound, per cent of control [38]: 100%
kinase still bound, per cent of control [39]: 100%
kinase still bound, per cent of control [40]: 97%
kinase still bound, per cent of control [41]: 96%
kinase still bound, per cent of control [42]: 53%
SMILES: COc1cc(N2CCN(C)CC2)ccc1Nc1ncc2c(n1)N(C)c1ccccc1N(C)C2=O
kinase still bound, per cent of control [26]: 97%

kinase still bound, per cent of control [1]: 68%
kinase still bound, per cent of control [2]: 80%
kinase still bound, per cent of control [3]: 100%
kinase still bound, per cent of control [4]: 99%
kinase still bound, per cent of control [5]: 96%
kinase still bound, per cent of control [6]: 76%
kinase still bound, per cent of control [7]: 93%
kinase still bound, per cent of control [8]: 70%
kinase still bound, per cent of control [9]: 69%
kinase still bound, per cent of control [10]: 88%
kinase still bound, per cent of control [11]: 83%
kinase still bound, per cent of control [12]: 100%
kinase still bound, per cent of control [13]: 65%
kinase still bound, per cent of control [14]: 96%
kinase still bound, per cent of control [15]: 83%
kinase still bound, per cent of control [16]: 77%
kinase still bound, per cent of control [17]: 99%
kinase still bound, per cent of control [18]: 76%
kinase still bound, per cent of control [19]: 61%
kinase still bound, per cent of control [20]: 82%
kinase still bound, per cent of control [21]: 100%
kinase still bound, per cent of control [22]: 91%
kinase still bound, per cent of control [23]: 100%
kinase still bound, per cent of control [24]: 100%
kinase still bound, per cent of control [25]: 94%
kinase still bound, per cent of control [27]: 25%
kinase still bound, per cent of control [28]: 8%
kinase still bound, per cent of control [29]: 85%
kinase still bound, per cent of control [30]: 95%
kinase still bound, per cent of control [31]: 13%
kinase still bound, per cent of control [32]: 94%
kinase still bound, per cent of control [33]: 92%
kinase still bound, per cent of control [34]: 100%
kinase still bound, per cent of control [35]: 87%
kinase still bound, per cent of control [36]: 100%
kinase still bound, per cent of control [37]: 99%
kinase still bound, per cent of control [38]: 91%
kinase still bound, per cent of control [39]: 88%
kinase still bound, per cent of control [40]: 100%
kinase still bound, per cent of control [41]: 93%
kinase still bound, per cent of control [42]: 38%
SMILES: COc1cc(N2CCN(C)CC2)ccc1Nc1ncc2c(n1)N(C)c1sccc1C(=O)N2C
kinase still bound, per cent of control [26]: 94%

kinase still bound, per cent of control [1]: 100%
kinase still bound, per cent of control [2]: 100%
kinase still bound, per cent of control [3]: 100%
kinase still bound, per cent of control [4]: 98%
kinase still bound, per cent of control [5]: 100%
kinase still bound, per cent of control [6]: 100%
kinase still bound, per cent of control [7]: 77%
kinase still bound, per cent of control [8]: 100%
kinase still bound, per cent of control [9]: 100%
kinase still bound, per cent of control [10]: 100%
kinase still bound, per cent of control [11]: 98%
kinase still bound, per cent of control [12]: 100%
kinase still bound, per cent of control [13]: 100%
kinase still bound, per cent of control [14]: 100%
kinase still bound, per cent of control [15]: 100%
kinase still bound, per cent of control [16]: 90%
kinase still bound, per cent of control [17]: 100%
kinase still bound, per cent of control [18]: 98%
kinase still bound, per cent of control [19]: 70%
kinase still bound, per cent of control [20]: 100%
kinase still bound, per cent of control [21]: 100%
kinase still bound, per cent of control [22]: 100%
kinase still bound, per cent of control [23]: 100%
kinase still bound, per cent of control [24]: 100%
kinase still bound, per cent of control [25]: 100%
kinase still bound, per cent of control [27]: 90%
kinase still bound, per cent of control [28]: 100%
kinase still bound, per cent of control [29]: 99%
kinase still bound, per cent of control [30]: 95%
kinase still bound, per cent of control [31]: 100%
kinase still bound, per cent of control [32]: 100%
kinase still bound, per cent of control [33]: 93%
kinase still bound, per cent of control [34]: 100%
kinase still bound, per cent of control [35]: 78%
kinase still bound, per cent of control [36]: 100%
kinase still bound, per cent of control [37]: 100%
kinase still bound, per cent of control [38]: 93%
kinase still bound, per cent of control [39]: 100%
kinase still bound, per cent of control [40]: 100%
kinase still bound, per cent of control [41]: 100%
kinase still bound, per cent of control [42]: 100%
SMILES: CN1CCN(c2ccc(C(=O)Nc3ncc4c(n3)N(C)c3ccccc3C(=O)N4C)cc2)CC1
kinase still bound, per cent of control [26]: 100%
